Assay [1] addresses T1, NLRP3 (Homo sapiens, UniProt Q96P20). The experiment in a line: THP-1 cells pyroptosis assay (LPS + nigericin, resazurin readout; THP IC50). Format: cell-based. Also noted: Seed THP-1 cells (25,000 cells/well) containing 1.0 μg/ml LPS in 40 μl of RPMI medium; host or cells: THP-1 cells. Summed up: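 Human THP-1 cells, 25,000/well in serum-free RPMI with 1 μg/ml LPS, treated 3 hrs at 37° C with compound (8-point half-log, 10 μM top, 0.1% DMSO), then 5 μM nigericin 1 hr. Viability by 100 μM resazurin fluorescence after 1-2 hrs; IC50 by 4-parameter fit.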
(The colour change of resazurin is a common sign of viable cells or microbes.)

The target in assay [2] is T1, NLRP3. Briefly: Human whole blood IL1β release assay (LPS + nigericin, AlphaLisa IL-1β; HWB IC50). Format: cell-based. Set-up: Human whole blood in Li-heparin tubes was obtained from healthy donors from a volunteer donor panel; from tissue; host or cells: human whole blood from healthy donors. The following applies: IL-1β release. Here is the method:
For systemic delivery, the ability to inhibit NLRP3 when the compounds are present within the bloodstream is of great importance. For this reason, the NLRP3 inhibitory activity of a number of compounds in human whole blood was investigated in accordance with the following protocol.
Human whole blood in Li-heparin tubes was obtained from healthy donors from a volunteer donor panel. • 1. Plate out 80 μl of whole blood containing 1 μg/ml of LPS in 96-well, clear bottom cell culture plate (Corning #3585) • 2. Add 10 μl compound (8 points half-log dilution with 10 μM top dose) or vehicle (DMSO 0.1% FAC) to the appropriate wells • 3. Incubate for 3 hrs at 37° C., 5% CO2 • 4. Add 10 μl nigericin (Sigma #N7143) (10 μM FAC) to all wells • 5. Incubate for 1 hr at 37° C., 5% CO2 • 6. At the end of the incubation period, spin plates at 300×g for 5 mins to pellet cells and remove 20 μl of supernatant and add to 96-well v-bottom plates for IL-1β analysis (note: these plates containing the supernatants can be stored at −80° C. to be analysed at a later date) • 7. IL-1β was measured according to the manufacturer protocol (Perkin Elmer-AlphaLisa IL-1 Kit AL220F-5000) • 8. IC50 data is fitted to a non-linear regression equation (log inhibitor vs response-variable slope 4-parameters)
On the technique in general: In Alpha technology, singlet oxygen from a donor bead excites a nearby acceptor bead.

One may read the IC50 as the concentration that gives 50% inhibition.

SMILES strings stand for the structures. Where a name gives a salt, the structure may show the parent alone.

T1 sequence (Q96P20 whole entry): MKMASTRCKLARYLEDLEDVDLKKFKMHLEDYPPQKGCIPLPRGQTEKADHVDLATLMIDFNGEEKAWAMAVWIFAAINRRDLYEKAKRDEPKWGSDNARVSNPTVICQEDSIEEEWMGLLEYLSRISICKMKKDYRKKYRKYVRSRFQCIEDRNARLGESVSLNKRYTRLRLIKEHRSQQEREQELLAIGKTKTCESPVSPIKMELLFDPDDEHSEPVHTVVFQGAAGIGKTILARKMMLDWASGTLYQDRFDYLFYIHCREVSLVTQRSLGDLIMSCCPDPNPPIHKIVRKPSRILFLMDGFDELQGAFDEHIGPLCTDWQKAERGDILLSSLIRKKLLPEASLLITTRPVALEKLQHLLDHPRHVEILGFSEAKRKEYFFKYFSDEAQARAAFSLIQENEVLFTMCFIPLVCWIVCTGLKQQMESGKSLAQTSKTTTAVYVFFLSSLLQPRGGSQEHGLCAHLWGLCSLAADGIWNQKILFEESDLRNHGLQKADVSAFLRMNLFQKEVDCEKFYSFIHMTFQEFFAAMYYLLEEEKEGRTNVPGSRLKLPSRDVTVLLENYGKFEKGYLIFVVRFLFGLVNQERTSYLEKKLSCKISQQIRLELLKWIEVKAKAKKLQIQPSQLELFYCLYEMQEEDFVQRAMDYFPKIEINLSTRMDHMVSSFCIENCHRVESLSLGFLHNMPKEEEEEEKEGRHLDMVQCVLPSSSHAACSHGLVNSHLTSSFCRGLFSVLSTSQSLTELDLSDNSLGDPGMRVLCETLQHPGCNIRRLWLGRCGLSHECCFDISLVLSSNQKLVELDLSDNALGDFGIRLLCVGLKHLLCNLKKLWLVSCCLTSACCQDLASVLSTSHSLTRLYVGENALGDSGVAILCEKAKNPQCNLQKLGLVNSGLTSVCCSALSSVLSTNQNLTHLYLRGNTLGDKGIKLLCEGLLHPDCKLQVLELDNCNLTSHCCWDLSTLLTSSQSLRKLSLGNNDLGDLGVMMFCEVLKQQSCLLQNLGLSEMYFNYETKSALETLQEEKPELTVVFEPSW

In the case of `COc1cc(-c2cc(F)c3c(c2NC(=O)NS(=O)(=O)c2ccn(C4CCC4)n2)CCC3)ccn1` [Example 172, 1-Cyclobutyl-N-((7-fluoro-5-(2-methoxypyridin-4-yl)-2,3-dihydro-1H-inden-4-yl)carbamoyl)-1H-pyrazole-3-sulfonamide, sodium salt], the IC50 on NLRP3 [1] is at most 500 nM; at NLRP3 [2] it was at most 1000 nM.

Regarding `CCN(CC)CCCS(=O)(=O)NC(=O)Nc1c(-c2ccncc2)cc(F)c2c1CCC2` [Example 149, 3-(Diethylamino)-N-((7-fluoro-5-(pyridin-4-yl)-2,3-dihydro-1H-inden-4-yl)carbamoyl)propane-1-sulfonamide], the IC50 at NLRP3 [1] and on NLRP3 [2] was at most 500 nM throughout.

Take `COc1cc(-c2ccc3c(c2NC(=O)NS(=O)(=O)CCOC(C)C)CCO3)ccn1` [Example 175, 2-Isopropoxy-N-((5-(2-methoxypyridin-4-yl)-2,3-dihydrobenzofuran-4-yl)carbamoyl)ethanesulfonamide, sodium salt]: the IC50 on NLRP3 [1] and on NLRP3 [2] was at most 500 nM each time.

On to `CC(C)n1cnc(S(=O)(=O)NC(=O)Nc2c(-c3ccnc(C#N)c3)ccc3c2CCC3)c1` [Example 229, N-((5-(2-Cyanopyridin-4-yl)-2,3-dihydro-1H-inden-4-yl)carbamoyl)-1-isopropyl-1H-imidazole-4-sulfonamide], for which the IC50 at NLRP3 [1] and on NLRP3 [2] was at most 500 nM in each case.

`COCCOc1cc(-c2ccc3c(c2NC(=O)NS(=O)(=O)c2ccn(C(C)C)n2)CCC3)ccn1` [Example 300, 1-Isopropyl-N-((5-(2-(2-methoxyethoxy)pyridin-4-yl)-2,3-dihydro-1H-inden-4-yl)carbamoyl)-1H-pyrazole-3-sulfonamide, sodium salt]: the IC50 is at most 500 nM on NLRP3 [1] and at most 1000 nM on NLRP3 [2].

On to `CCOc1cc(-c2ccc3c(c2NC(=O)NS(=O)(=O)c2ccn(C(C)C)n2)CCC3)ccn1` [Example 214, N-((5-(2-Ethoxypyridin-4-yl)-2,3-dihydro-1H-inden-4-yl)carbamoyl)-1-isopropyl-1H-pyrazole-3-sulfonamide], for which the results for the IC50 at NLRP3 [1] and on NLRP3 [2] were at most 500 nM and at most 1000 nM, respectively.

Turning to `CCN1CCC(S(=O)(=O)NC(=O)Nc2c(-c3ccncc3)ccc3c2CCC3)CC1` [Example 101, 1-Ethyl-N-((5-(pyridin-4-yl)-2,3-dihydro-1H-inden-4-yl)carbamoyl)piperidine-4-sulfonamide, potassium salt], the IC50 on NLRP3 [2] is at most 1000 nM.

Turning to `CC(C)n1ccc(S(=O)(=O)NC(=O)Nc2c(-c3cncn3C)ccc3c2CCC3)n1` [Example 240, 1-Isopropyl-N-((5-(1-methyl-1H-imidazol-5-yl)-2,3-dihydro-1H-inden-4-yl)carbamoyl)-1H-pyrazole-3-sulfonamide], the IC50 on NLRP3 [1] was at most 5000 nM.

Consider `CC(C)c1cc(F)cc(-c2cnoc2)c1NC(=O)NS(=O)(=O)c1ccn(C(C)C)n1` [Example 7, N-((4-Fluoro-2-iso-propyl-6-(isoxazol-4-yl)phenyl)carbamoyl)-1-iso-propyl-1H-pyrazole-3-sulfonamide], for which, at NLRP3 [1], the IC50 was at most 5000 nM.

In the case of `CC(C)c1cc(F)cc(-c2ccnn2C)c1NC(=O)NS(=O)(=O)c1ccn(C(C)C)n1` [Example 5, N-((4-Fluoro-2-iso-propyl-6-(1-methyl-1H-pyrazol-5-yl)phenyl)carbamoyl)-1-iso-propyl-1H-pyrazole-3-sulfonamide], the IC50 on NLRP3 [1] is at most 5000 nM.

Turning to `CC(C)c1cc(F)cc(-c2cncnc2)c1NC(=O)NS(=O)(=O)c1cc(CN(C)C)n(C(C)C)n1` [Example 43, 5-((Dimethylamino)methyl)-N-((4-fluoro-2-isopropyl-6-(pyrimidin-5-yl)phenyl)carbamoyl)-1-isopropyl-1H-pyrazole-3-sulfonamide], on NLRP3 [1], the concentration for half-maximal inhibition (IC50) was at most 5000 nM.

For `COc1cc(-c2ccc3c(c2NC(=O)NS(=O)(=O)CCc2ccccc2)CCC3)ccn1` [Example 137, N-((5-(2-Methoxypyridin-4-yl)-2,3-dihydro-1H-inden-4-yl)carbamoyl)-2-phenylethanesulfonamide], at NLRP3 [1], the IC50 is at most 500 nM.

With `CC(C)c1cc(F)cc(-c2ccnc(N(C)C)c2)c1NC(=O)NS(=O)(=O)c1ccn(C(C)C)n1` [Example 50, N-((2-(2-(Dimethylamino)pyridin-4-yl)-4-fluoro-6-isopropylphenyl)carbamoyl)-1-isopropyl-1H-pyrazole-3-sulfonamide], at NLRP3 [1], the concentration for half-maximal inhibition (IC50) is at most 5000 nM.

As for `CC(C)CS(=O)(=O)NC(=O)Nc1c(-c2ccnc(C#N)c2)cc(F)cc1C(C)C` [Example 131, N-((2-(2-Cyanopyridin-4-yl)-4-fluoro-6-isopropylphenyl)carbamoyl)-2-methylpropane-1-sulfonamide], at NLRP3 [1], the IC50 is at most 10000 nM.

Take `COc1cc(-c2ccc3c(c2NC(=O)NS(C)(=O)=O)CCC3)ccn1` [Example 143, N-((5-(2-Methoxypyridin-4-yl)-2,3-dihydro-1H-inden-4-yl)carbamoyl)methanesulfonamide]: the IC50 on NLRP3 [1] is at most 1000 nM.

In the case of `CCN(CC)CCCS(=O)(=O)NC(=O)Nc1c(-c2ccnc(C#N)c2)cc(F)cc1C(C)C` [Example 146, N-((2-(2-Cyanopyridin-4-yl)-4-fluoro-6-isopropylphenyl)carbamoyl)-3-(diethylamino)propane-1-sulfonamide], the IC50 on NLRP3 [1] is at most 1000 nM.

In the case of `COc1cc(-c2ccc3c(c2NC(=O)NS(=O)(=O)c2nccnc2C(F)F)CCC3)ccn1` [Example 112, 3-(Difluoromethyl)-N-((5-(2-methoxypyridin-4-yl)-2,3-dihydro-1H-inden-4-yl)carbamoyl)pyrazine-2-sulfonamide], the 50% inhibitory concentration (IC50) on NLRP3 [1] was at most 1000 nM.

For `CC(C)c1cc(F)cc(-c2cccc(C#N)c2)c1NC(=O)NS(=O)(=O)c1ccn(C(C)C)n1` [Example 8, N-((3′-Cyano-5-fluoro-3-iso-propyl-[1,1′-biphenyl]-2-yl)carbamoyl)-1-iso-propyl-1H-pyrazole-3-sulfonamide, sodium salt], on NLRP3 [1], the IC50 is at most 5000 nM.

For `COc1cc(-c2ccc3c(c2NC(=O)NS(=O)(=O)Cc2ccccc2)CCC3)ccn1` [Example 129, N-((5-(2-Methoxypyridin-4-yl)-2,3-dihydro-1H-inden-4-yl)carbamoyl)-1-phenylmethanesulfonamide], the IC50 on NLRP3 [1] was at most 5000 nM.

For the compound `COc1cc(-c2ccc3c(c2NC(=O)NS(=O)(=O)C2CN(C4CCC4)C2)CCC3)ccn1` [Example 80, 1-Cyclobutyl-N-((5-(2-methoxypyridin-4-yl)-2,3-dihydro-1H-inden-4-yl)carbamoyl)azetidine-3-sulfonamide], the half-maximal inhibitory concentration (IC50) on NLRP3 [1] is at most 500 nM.

In the case of `CCN1CCC(S(=O)(=O)NC(=O)Nc2c(-c3ccnc(OC)c3)cc(F)c3c2CCC3)CC1` [Example 97, 1-Ethyl-N-((7-fluoro-5-(2-methoxypyridin-4-yl)-2,3-dihydro-1H-inden-4-yl)carbamoyl)piperidine-4-sulfonamide, potassium salt], the IC50 at NLRP3 [1] is at most 5000 nM.

Take `CC(C)c1cc(F)cc(-c2cccnc2)c1NC(=O)NS(=O)(=O)C1CCN(C(C)C)CC1` [Example 93, N-((4-Fluoro-2-isopropyl-6-(pyridin-3-yl)phenyl)carbamoyl)-1-isopropylpiperidine-4-sulfonamide]: the IC50 at NLRP3 [1] was at most 10000 nM.

Take `CC(C)n1ccc(S(=O)(=O)NC(=O)Nc2c(-c3cccnc3)cc(F)cc2-c2cccnc2)n1` [Example 208, N-((4-Fluoro-2,6-di(pyridin-3-yl)phenyl)carbamoyl)-1-isopropyl-1H-pyrazole-3-sulfonamide]: the IC50 at NLRP3 [1] is at most 5000 nM.

On to `Cc1ccc(-c2cc(F)cc(C(C)C)c2NC(=O)NS(=O)(=O)c2ccn(C(C)C)n2)cn1` [Example 15, N-((4-Fluoro-2-iso-propyl-6-(6-methylpyridin-3-yl)phenyl)carbamoyl)-1-iso-propyl-1H-pyrazole-3-sulfonamide, partial ammonium salt], for which the IC50 at NLRP3 [1] is at most 5000 nM.

For the compound `CC(C)n1ccc(S(=O)(=O)NC(=O)Nc2c(-c3cncnc3)ccc3c2CCC3)n1` [Example 241, 1-Isopropyl-N-((5-(pyrimidin-5-yl)-2,3-dihydro-1H-inden-4-yl)carbamoyl)-1H-pyrazole-3-sulfonamide], the IC50 at NLRP3 [1] is at most 5000 nM.

As to `CC(C)c1cc(F)cc(-c2ccnc(C#N)c2)c1NC(=O)NS(=O)(=O)c1nccnc1C(F)F` [Example 110, N-((2-(2-Cyanopyridin-4-yl)-4-fluoro-6-isopropylphenyl)carbamoyl)-3-(difluoromethyl)pyrazine-2-sulfonamide], the IC50 at NLRP3 [1] is at most 10000 nM.

Turning to `CC(C)c1cc(F)cc(-c2ccnc(C#N)c2)c1NC(=O)NS(=O)(=O)Cc1ccccc1` [Example 127, N-((2-(2-Cyanopyridin-4-yl)-4-fluoro-6-isopropylphenyl)carbamoyl)-1-phenylmethanesulfonamide], the IC50 at NLRP3 [1] was at most 10000 nM.

Source of the values: patent publication US20200361895A1, “NOVEL SULFONAMIDE CARBOXAMIDE COMPOUNDS” (Inflazome Limited, priority 2017, published 2020).
